According to ChEMBL document CHEMBL4507264, “Data for DCP probe BAY-7598” (2021):

How the values were obtained:
[1] = test system: Phosphatidylinositol 4,5-bisphosphate 3-kinase catalytic subunit alpha isoform (Homo sapiens), P42336 [C420R]; conditions: Compound concentration 1000.0 nM
[2] = test system: Receptor-type tyrosine-protein kinase FLT3 (Homo sapiens), P36888 [D835V]; conditions: Compound concentration 1000.0 nM
[3] = target: Serine/threonine-protein kinase PAK 6 (Homo sapiens) (UniProt Q9NQU5); conditions: Compound concentration 1000.0 nM
[4] = test system: Epidermal growth factor receptor (Homo sapiens), P00533 [L861Q]; conditions: Compound concentration 1000.0 nM
[5] = target: Serine/threonine-protein kinase pim-1 (Homo sapiens) (UniProt P11309); conditions: Compound concentration 1000.0 nM
[6] = test system: Mast/stem cell growth factor receptor Kit (Homo sapiens), P10721 [V559D,T670I]; conditions: Compound concentration 1000.0 nM
Chain of Mast/stem cell growth factor receptor Kit (Homo sapiens), P10721 [V559D,T670I] (P10721 whole entry V559D/T670I): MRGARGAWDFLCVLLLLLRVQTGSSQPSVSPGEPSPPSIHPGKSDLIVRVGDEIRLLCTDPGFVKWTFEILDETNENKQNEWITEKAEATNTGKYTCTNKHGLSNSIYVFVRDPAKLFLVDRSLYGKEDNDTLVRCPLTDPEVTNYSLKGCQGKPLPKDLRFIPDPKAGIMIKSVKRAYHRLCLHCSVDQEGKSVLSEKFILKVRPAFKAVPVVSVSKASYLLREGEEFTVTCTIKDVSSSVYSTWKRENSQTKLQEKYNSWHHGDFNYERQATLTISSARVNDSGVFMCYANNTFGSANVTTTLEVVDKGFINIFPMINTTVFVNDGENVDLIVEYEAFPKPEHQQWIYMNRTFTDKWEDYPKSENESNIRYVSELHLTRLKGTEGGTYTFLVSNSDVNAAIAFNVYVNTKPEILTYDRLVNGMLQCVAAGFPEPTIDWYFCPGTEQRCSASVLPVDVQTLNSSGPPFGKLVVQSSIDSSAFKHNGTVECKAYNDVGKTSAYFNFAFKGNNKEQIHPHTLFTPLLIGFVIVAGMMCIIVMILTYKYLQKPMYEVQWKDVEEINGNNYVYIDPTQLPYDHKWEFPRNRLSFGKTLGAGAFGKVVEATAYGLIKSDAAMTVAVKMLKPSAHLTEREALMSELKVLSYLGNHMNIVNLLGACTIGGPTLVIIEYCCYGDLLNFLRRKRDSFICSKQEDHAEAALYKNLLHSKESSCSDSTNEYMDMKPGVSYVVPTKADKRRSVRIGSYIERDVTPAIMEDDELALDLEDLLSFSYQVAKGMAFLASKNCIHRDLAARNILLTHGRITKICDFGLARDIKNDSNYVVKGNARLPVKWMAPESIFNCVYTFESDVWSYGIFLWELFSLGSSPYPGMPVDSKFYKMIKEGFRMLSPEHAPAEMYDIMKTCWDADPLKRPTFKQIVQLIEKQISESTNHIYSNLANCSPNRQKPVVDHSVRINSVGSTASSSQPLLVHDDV

[7] = target: Aurora kinase B (Homo sapiens) (UniProt Q96GD4); conditions: Compound concentration 1000.0 nM
Chain of Aurora kinase B (Homo sapiens) (Q96GD4 whole entry): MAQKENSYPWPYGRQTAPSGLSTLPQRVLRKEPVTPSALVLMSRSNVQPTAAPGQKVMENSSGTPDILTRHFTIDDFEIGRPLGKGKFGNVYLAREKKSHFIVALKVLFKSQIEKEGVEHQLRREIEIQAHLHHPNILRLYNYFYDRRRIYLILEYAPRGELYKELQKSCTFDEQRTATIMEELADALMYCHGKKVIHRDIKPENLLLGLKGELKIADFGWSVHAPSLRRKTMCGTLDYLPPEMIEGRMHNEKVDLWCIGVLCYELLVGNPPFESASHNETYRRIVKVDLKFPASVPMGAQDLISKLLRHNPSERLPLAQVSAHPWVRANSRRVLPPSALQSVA

[8] = target: Mitogen-activated protein kinase kinase kinase 3 (Homo sapiens) (UniProt Q99759); conditions: Compound concentration 1000.0 nM
Chain of Mitogen-activated protein kinase kinase kinase 3 (Homo sapiens) (Q99759 whole entry): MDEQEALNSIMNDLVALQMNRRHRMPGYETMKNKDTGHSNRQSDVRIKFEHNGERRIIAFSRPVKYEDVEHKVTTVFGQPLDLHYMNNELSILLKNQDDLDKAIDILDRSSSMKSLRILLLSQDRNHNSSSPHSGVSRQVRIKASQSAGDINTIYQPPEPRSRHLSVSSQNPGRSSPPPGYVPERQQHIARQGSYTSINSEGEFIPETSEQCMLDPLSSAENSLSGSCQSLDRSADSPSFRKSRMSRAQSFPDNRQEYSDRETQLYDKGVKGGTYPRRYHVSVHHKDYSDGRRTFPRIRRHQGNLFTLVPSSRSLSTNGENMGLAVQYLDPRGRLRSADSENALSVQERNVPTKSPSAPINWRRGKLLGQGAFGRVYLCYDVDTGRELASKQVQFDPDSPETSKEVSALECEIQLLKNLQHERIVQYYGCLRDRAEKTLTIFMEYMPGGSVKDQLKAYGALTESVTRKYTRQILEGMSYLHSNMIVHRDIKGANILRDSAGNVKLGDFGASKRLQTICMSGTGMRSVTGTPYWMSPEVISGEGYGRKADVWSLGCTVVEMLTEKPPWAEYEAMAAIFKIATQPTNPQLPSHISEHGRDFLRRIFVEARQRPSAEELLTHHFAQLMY

[9] = target: Ribosomal protein S6 kinase alpha-2 (Homo sapiens) (UniProt Q15349); conditions: Compound concentration 1000.0 nM
Chain of Ribosomal protein S6 kinase alpha-2 (Homo sapiens) (Q15349 whole entry): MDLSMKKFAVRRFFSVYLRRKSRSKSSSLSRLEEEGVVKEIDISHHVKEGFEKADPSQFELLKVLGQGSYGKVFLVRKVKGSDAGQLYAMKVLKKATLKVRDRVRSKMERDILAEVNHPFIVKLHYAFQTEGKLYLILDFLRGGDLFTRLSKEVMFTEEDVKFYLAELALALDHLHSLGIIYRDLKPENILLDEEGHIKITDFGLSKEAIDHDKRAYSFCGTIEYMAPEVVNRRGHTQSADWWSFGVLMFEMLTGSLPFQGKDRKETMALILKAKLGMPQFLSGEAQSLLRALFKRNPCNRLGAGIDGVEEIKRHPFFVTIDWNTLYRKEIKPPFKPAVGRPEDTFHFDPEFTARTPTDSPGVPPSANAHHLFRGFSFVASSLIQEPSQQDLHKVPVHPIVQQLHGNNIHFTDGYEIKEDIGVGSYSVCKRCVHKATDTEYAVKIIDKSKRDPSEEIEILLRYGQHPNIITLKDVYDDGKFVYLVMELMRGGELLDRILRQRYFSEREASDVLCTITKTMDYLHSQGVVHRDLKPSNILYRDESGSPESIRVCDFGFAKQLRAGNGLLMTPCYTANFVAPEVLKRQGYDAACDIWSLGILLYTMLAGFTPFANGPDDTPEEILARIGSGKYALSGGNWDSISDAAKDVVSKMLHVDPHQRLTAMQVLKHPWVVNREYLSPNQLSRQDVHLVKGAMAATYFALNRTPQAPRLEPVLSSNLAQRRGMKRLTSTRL

[10] = target: Mitogen-activated protein kinase kinase kinase 10 (Homo sapiens) (UniProt Q02779); conditions: Compound concentration 1000.0 nM
[11] = target: Ephrin type-A receptor 7 (Homo sapiens) (UniProt Q15375); conditions: Compound concentration 1000.0 nM
[12] = target: Muscarinic acetylcholine receptor M3 (Homo sapiens) (UniProt P20309); conditions: Compound concentration 10.0 uM
Chain of Muscarinic acetylcholine receptor M3 (Homo sapiens) (P20309 whole entry, looked up): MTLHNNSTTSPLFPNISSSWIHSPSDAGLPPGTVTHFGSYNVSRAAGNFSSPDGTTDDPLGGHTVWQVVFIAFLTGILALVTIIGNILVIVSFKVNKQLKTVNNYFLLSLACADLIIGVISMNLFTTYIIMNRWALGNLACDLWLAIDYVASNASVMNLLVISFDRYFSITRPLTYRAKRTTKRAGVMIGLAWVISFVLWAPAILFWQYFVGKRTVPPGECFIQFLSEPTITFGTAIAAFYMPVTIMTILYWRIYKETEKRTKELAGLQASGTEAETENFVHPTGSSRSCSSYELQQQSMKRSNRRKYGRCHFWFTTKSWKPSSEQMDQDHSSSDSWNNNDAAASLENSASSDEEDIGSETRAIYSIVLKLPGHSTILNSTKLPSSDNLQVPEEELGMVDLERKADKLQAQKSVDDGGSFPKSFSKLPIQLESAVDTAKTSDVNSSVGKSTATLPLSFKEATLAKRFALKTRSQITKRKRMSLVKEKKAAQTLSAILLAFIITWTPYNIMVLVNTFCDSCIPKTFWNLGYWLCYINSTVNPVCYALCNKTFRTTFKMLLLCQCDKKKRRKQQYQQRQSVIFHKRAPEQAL

[13] = target: MAP kinase-interacting serine/threonine-protein kinase 1 (Homo sapiens) (UniProt Q9BUB5); conditions: Compound concentration 1000.0 nM
[14] = target: Serine/threonine-protein kinase TAO2 (Homo sapiens) (UniProt Q9UL54); conditions: Compound concentration 1000.0 nM
[15] = target: Casein kinase I isoform alpha-like (Homo sapiens) (UniProt Q8N752); conditions: Compound concentration 1000.0 nM
[16] = target: Tyrosine-protein kinase receptor UFO (Homo sapiens) (UniProt P30530); conditions: Compound concentration 1000.0 nM
[17] = target: Mitogen-activated protein kinase kinase kinase kinase 2 (Homo sapiens) (UniProt Q12851); conditions: Compound concentration 1000.0 nM
[18] = target: RAC-alpha serine/threonine-protein kinase (Homo sapiens) (UniProt P31749); conditions: Compound concentration 1000.0 nM
[19] = target: Serine/threonine-protein kinase ULK2 (Homo sapiens) (UniProt Q8IYT8); conditions: Compound concentration 1000.0 nM
[20] = target: Cyclin-dependent kinase 7 (Homo sapiens) (UniProt P50613); conditions: Compound concentration 1000.0 nM
[21] = test system: Tyrosine-protein kinase ABL1 (Homo sapiens), P00519 [T315I]; conditions: Compound concentration 1000.0 nM
[22] = target: Tyrosine-protein kinase Mer (Homo sapiens) (UniProt Q12866); conditions: Compound concentration 1000.0 nM
Chain of Tyrosine-protein kinase Mer (Homo sapiens) (Q12866 whole entry): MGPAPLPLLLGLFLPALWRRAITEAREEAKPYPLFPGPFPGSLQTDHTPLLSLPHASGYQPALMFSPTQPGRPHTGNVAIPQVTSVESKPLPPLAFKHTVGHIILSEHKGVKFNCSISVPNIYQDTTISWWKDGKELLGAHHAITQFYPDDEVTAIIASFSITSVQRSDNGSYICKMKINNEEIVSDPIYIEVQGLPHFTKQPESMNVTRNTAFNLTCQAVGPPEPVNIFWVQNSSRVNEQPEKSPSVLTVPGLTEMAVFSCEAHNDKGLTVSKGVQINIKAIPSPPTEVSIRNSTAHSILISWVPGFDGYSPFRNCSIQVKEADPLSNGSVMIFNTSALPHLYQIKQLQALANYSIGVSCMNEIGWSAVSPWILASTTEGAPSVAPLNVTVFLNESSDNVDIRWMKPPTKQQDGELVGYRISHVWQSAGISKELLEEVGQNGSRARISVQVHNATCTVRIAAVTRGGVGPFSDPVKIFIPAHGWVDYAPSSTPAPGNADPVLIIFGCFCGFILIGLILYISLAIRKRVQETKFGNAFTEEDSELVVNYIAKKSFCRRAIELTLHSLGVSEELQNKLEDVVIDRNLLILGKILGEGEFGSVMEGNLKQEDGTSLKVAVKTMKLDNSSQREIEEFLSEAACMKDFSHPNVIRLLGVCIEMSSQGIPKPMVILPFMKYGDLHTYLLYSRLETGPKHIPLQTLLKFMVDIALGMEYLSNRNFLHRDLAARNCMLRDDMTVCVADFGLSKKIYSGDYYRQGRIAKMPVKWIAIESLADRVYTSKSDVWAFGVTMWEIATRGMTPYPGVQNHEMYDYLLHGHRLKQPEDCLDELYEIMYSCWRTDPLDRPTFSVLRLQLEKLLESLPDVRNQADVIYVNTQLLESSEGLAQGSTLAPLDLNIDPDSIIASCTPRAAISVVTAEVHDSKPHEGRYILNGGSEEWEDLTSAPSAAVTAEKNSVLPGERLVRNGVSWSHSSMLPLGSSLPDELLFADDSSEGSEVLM

[23] = target: Cyclin-dependent kinase 5 (Homo sapiens) (UniProt Q00535); conditions: Compound concentration 1000.0 nM
[24] = target: Atypical kinase COQ8B, mitochondrial (Homo sapiens) (UniProt Q96D53); conditions: Compound concentration 1000.0 nM
[25] = target: Serine/threonine-protein kinase PAK 2 (Homo sapiens) (UniProt Q13177); conditions: Compound concentration 1000.0 nM
[26] = target: STE20-like serine/threonine-protein kinase (Homo sapiens) (UniProt Q9H2G2); conditions: Compound concentration 1000.0 nM
[27] = test system: Mast/stem cell growth factor receptor Kit (Homo sapiens), P10721 [A829P]; conditions: Compound concentration 1000.0 nM
Chain of Mast/stem cell growth factor receptor Kit (Homo sapiens), P10721 [A829P] (P10721 whole entry A829P): as the sequence (P10721 whole entry V559D/T670I) above, with D559V, I670T, A829P counted along it

[28] = target: Cyclin-dependent kinase 9 (Homo sapiens) (UniProt P50750); conditions: Compound concentration 1000.0 nM
[29] = target: Serine/threonine-protein kinase 17A (Homo sapiens) (UniProt Q9UEE5); conditions: Compound concentration 1000.0 nM
[30] = target: Homeodomain-interacting protein kinase 1 (Homo sapiens) (UniProt Q86Z02); conditions: Compound concentration 1000.0 nM
[31] = target: Sigma intracellular receptor 2 (Homo sapiens) (UniProt Q5BJF2); conditions: Compound concentration 10.0 uM
[32] = target: Serine/threonine-protein kinase 32C (Homo sapiens) (UniProt Q86UX6); conditions: Compound concentration 1000.0 nM
[33] = target: Mitogen-activated protein kinase 6 (Homo sapiens) (UniProt Q16659); conditions: Compound concentration 1000.0 nM
[34] = target: Mitogen-activated protein kinase 15 (Homo sapiens) (UniProt Q8TD08); conditions: Compound concentration 1000.0 nM
[35] = target: Ribosomal protein S6 kinase alpha-3 (Homo sapiens) (UniProt P51812); conditions: Compound concentration 1000.0 nM
Chain of Ribosomal protein S6 kinase alpha-3 (Homo sapiens) (P51812 whole entry): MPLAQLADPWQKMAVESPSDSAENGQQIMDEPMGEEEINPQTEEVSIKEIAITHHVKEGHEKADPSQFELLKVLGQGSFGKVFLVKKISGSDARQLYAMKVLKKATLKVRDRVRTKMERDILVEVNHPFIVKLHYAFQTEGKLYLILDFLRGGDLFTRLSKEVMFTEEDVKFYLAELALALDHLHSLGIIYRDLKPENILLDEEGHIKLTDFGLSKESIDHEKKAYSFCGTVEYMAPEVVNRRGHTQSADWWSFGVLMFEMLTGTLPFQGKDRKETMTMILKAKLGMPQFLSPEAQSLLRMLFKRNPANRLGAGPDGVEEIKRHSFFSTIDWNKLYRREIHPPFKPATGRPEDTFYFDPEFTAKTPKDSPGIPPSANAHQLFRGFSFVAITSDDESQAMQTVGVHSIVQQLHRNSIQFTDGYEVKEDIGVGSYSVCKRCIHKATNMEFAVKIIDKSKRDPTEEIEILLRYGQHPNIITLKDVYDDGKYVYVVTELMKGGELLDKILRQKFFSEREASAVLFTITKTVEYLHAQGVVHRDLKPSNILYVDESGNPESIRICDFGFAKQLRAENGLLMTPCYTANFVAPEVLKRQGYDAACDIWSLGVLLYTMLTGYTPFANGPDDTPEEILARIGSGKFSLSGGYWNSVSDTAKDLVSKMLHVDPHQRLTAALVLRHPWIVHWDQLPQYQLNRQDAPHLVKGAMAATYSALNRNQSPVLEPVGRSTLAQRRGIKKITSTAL

[36] = target: Protein-tyrosine kinase 2-beta (Homo sapiens) (UniProt Q14289); conditions: Compound concentration 1000.0 nM
[37] = target: T1, D(4) dopamine receptor (Homo sapiens) (UniProt P21917); conditions: Compound concentration 10.0 uM
T1 sequence (whole entry): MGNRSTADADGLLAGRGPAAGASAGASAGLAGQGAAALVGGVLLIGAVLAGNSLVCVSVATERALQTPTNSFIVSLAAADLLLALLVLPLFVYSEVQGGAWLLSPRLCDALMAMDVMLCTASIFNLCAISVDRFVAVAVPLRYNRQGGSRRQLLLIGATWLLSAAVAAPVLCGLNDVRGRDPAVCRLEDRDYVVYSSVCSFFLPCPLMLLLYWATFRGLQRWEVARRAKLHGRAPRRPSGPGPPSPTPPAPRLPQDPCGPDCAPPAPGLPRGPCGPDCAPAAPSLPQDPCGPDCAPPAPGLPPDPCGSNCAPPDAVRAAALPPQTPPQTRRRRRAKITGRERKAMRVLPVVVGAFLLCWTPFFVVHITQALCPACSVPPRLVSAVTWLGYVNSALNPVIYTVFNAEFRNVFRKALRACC

[38] = target: Casein kinase I isoform alpha (Homo sapiens) (UniProt P48729); conditions: Compound concentration 1000.0 nM
[39] = target: Calcium/calmodulin-dependent protein kinase type II subunit beta (Homo sapiens) (UniProt Q13554); conditions: Compound concentration 1000.0 nM

O=C(O)[C@@H]1[C@@H](Cn2nnc3ccccc3c2=O)CC[C@H]1C(=O)c1ccc(OCCC2CCOCC2)cc1 [BAY-694]
inactive: residual activity [1] 100% | residual activity [2] 93% | residual activity [3] 99% | residual activity [4] 58% | residual activity [5] 100% | residual activity [6] 98% | residual activity [7] 100% | residual activity [8] 100% | residual activity [9] 96% | residual activity [10] 100% | residual activity [11] 100% | inhibition [12] 5.09% | residual activity [13] 93% | residual activity [14] 76% | residual activity [15] 100% | residual activity [16] 100% | residual activity [17] 97% | residual activity [18] 75% | residual activity [19] 90% | residual activity [20] 86% | residual activity [21] 100% | residual activity [22] 100% | residual activity [23] 81% | residual activity [24] 64% | residual activity [25] 82% | residual activity [26] 88% | residual activity [27] 90% | residual activity [28] 100% | residual activity [29] 98% | residual activity [30] 91% | inhibition [31] 39.3% | residual activity [32] 100% | residual activity [33] 100% | residual activity [34] 100% | residual activity [35] 100% | residual activity [36] 100% | inhibition [37] 21.9% | residual activity [38] 97% | residual activity [39] 100%

O=C(O)[C@H]1[C@H](Cn2nnc3ccccc3c2=O)CC[C@@H]1C(=O)c1ccc(OCCC2CCOCC2)cc1 [BAY-7598]
inactive: residual activity [1] 100% | residual activity [2] 92% | residual activity [3] 100% | residual activity [4] 53% | residual activity [5] 95% | residual activity [6] 69% | residual activity [7] 100% | residual activity [8] 100% | residual activity [9] 90% | residual activity [10] 82% | residual activity [11] 100% | inhibition [12] -7.32% | residual activity [13] 96% | residual activity [14] 100% | residual activity [15] 100% | residual activity [16] 100% | residual activity [17] 100% | residual activity [18] 83% | residual activity [19] 100% | residual activity [20] 95% | residual activity [21] 100% | residual activity [22] 61% | residual activity [23] 100% | residual activity [24] 87% | residual activity [25] 69% | residual activity [26] 96% | residual activity [27] 84% | residual activity [28] 72% | residual activity [29] 97% | residual activity [30] 100% | inhibition [31] 28.5% | residual activity [32] 89% | residual activity [33] 90% | residual activity [34] 100% | residual activity [35] 81% | residual activity [36] 75% | inhibition [37] 12.5% | residual activity [38] 82% | residual activity [39] 100%
